Square brackets hold non-standard residues; d marks the D form. Ends that are not written are not given here. Peptide text beside a SMILES is read from it.
B1: peptide Li5 C (peptide)
peptide: KNYSSSISSIHAC
modifications: also: immobilized on silica beads via C-terminal Cys thiol
notes: In the assay it was immobilized on propionyl chloride functionalized silica gel beads

What was measured:
[1] = system: mouse model for endotoxemia; settings: in vivo
human IL-1β (Pepro Tech) = biological target: T1, human IL-1β (Pepro Tech) (human, UniProt P01584 117-269); assay: batch adsorption on peptide-immobilized silica beads, in an LPS solution (500 ng/mL LPS) containing IL-1β
T1 construct: Commercial protein added at 200 ng/mL to the LPS solution

Molecule	short term toxicity (weight) [1]	binding result (human IL-1β (Pepro Tech))
CC[C@H](C)[C@H](NC(=O)[C@H](CO)NC(=O)[C@H](CO)NC(=O)[C@@H](NC(=O)[C@H](CO)NC(=O)[C@H](CO)NC(=O)[C@H](CO)NC(=O)[C@H](Cc1ccc(O)cc1)NC(=O)[C@H](N)CCCCN)[C@@H](C)CC)C(=O)N[C@@H](CCCNC(=N)N)C(=O)NCC(=O)NCC(=O)N[C@@H](CC(C)C)C(=O)N[C@@H](CC(C)C)C(=O)N[C@@H](CC(C)C)C(=O)N[C@@H](CC(C)C)C(=O)N[C@@H](CC(C)C)C(=O)N[C@@H](CC(C)C)C(=O)N[C@@H](CC(C)C)C(=O)O [Wine Opener, kYSSSISSIRGGLLLLLLL] (H-[dK]YSSSISSIRGGLLLLLLL-OH; N-terminus and C-terminus assumed)	no short term toxicity which affected weight	
B1		no binding (tested: 200 ng/mL IL-1β)
